target: T1, PsPto-PscA-LBD (Pseudomonas syringae group genomosp. 3, UniProt Q882Z2); assay: isothermal titration calorimetry; assay type: binding; conditions: read-out: Mean KD (μM) ± SEM
T1 construct: host E. coli BL21(DE3)
Excerpt: isothermal titration calorimetry on PsPto-PscA-LBD

T1 sequence (Q882Z2 30-278): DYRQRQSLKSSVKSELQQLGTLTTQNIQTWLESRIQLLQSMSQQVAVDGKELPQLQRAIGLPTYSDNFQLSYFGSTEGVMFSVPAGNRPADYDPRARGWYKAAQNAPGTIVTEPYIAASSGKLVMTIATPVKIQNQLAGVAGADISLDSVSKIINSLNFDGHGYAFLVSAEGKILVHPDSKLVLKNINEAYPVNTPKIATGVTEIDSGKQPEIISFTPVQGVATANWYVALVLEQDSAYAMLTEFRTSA

Compound | Kd [µM]
N[C@H](CC(=O)O)C(=O)O [D-Asp] | 1.2 ± 0.1
N[C@@H](CC(=O)O)C(=O)O [L-Asp] | 1.2 ± 0.1
N[C@@H](CCC(=O)O)C(=O)O [L-Glu] | 3.4 ± 0.1
